From ChEMBL document CHEMBL5338821, “6-Substituted Triazolyl Benzoxaboroles as Selective Carbonic Anhydrase Inhibitors: In Silico Design, Synthesis, and X-ray Crystallography” (J Med Chem, 2023)

What was measured:
Carbonic anhydrase 2 = Carbonic anhydrase 2 (Homo sapiens, UniProt P00918); assay: Inhibition of recombinant human carbonic anhydrase II assessed as inhibition constant incubated for 15 mins by phenol red dye based stopped-flow CO2 hydration assay
Carbonic anhydrase 1 = Carbonic anhydrase 1 (Homo sapiens, UniProt P00915); assay: Inhibition of recombinant human carbonic anhydrase I assessed as inhibition constant incubated for 15 mins by phenol red dye based stopped-flow CO2 hydration assay
Sequence of Carbonic anhydrase 1 (P00915 whole entry): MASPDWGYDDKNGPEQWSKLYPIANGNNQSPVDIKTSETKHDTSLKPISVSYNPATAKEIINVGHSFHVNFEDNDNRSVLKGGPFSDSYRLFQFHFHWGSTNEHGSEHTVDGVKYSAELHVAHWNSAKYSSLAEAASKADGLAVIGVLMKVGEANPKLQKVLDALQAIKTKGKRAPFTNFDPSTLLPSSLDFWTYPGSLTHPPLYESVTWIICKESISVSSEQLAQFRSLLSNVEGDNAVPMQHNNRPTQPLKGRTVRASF

Carbonic anhydrase 4 = Carbonic anhydrase 4 (Homo sapiens, UniProt P22748); assay: Inhibition of recombinant human carbonic anhydrase IV assessed as inhibition constant incubated for 15 mins by phenol red dye based stopped-flow CO2 hydration assay
Sequence of Carbonic anhydrase 4 (P22748 whole entry): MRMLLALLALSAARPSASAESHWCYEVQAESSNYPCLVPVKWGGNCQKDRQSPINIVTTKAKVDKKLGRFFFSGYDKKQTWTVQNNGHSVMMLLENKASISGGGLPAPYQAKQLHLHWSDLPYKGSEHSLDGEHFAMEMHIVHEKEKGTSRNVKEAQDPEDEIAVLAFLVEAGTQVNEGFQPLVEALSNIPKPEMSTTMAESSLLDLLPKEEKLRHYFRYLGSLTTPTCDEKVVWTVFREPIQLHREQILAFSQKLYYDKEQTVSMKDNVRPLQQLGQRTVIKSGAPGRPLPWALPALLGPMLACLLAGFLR

Carbonic anhydrase 7 = Carbonic anhydrase 7 (Homo sapiens, UniProt P43166); assay: Inhibition of recombinant human carbonic anhydrase VII assessed as inhibition constant incubated for 15 mins by phenol red dye based stopped-flow CO2 hydration assay
Sequence of Carbonic anhydrase 7 (P43166 whole entry): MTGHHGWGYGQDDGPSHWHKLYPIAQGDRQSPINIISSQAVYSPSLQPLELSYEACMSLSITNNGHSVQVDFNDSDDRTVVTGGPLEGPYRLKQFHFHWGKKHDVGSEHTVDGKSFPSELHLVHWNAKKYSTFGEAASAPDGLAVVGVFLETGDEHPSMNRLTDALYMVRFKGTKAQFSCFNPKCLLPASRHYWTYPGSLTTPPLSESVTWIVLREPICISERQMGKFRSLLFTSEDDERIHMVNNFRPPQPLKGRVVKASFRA

Carbonic anhydrase 9 = Carbonic anhydrase 9 (Homo sapiens, UniProt Q16790); assay: Inhibition of recombinant human carbonic anhydrase IX assessed as inhibition constant incubated for 15 mins by phenol red dye based stopped-flow CO2 hydration assay
Homo sapiens [1] = species on record: Homo sapiens; assay: Selectivity index, ratio of Ki for inhibition of recombinant human carbonic anhydrase II to Ki for inhibition of recombinant human carbonic anhydrase VII
Homo sapiens [2] = species on record: Homo sapiens; assay: Selectivity index, ratio of Ki for inhibition of recombinant human carbonic anhydrase I to Ki for inhibition of recombinant human carbonic anhydrase VII
Homo sapiens [3] = species on record: Homo sapiens; assay: Selectivity index, ratio of Ki for inhibition of recombinant human carbonic anhydrase I to Ki for inhibition of recombinant human carbonic anhydrase IX
Homo sapiens [4] = species on record: Homo sapiens; assay: Selectivity index, ratio of Ki for inhibition of recombinant human carbonic anhydrase II to Ki for inhibition of recombinant human carbonic anhydrase IX

| SMILES | Ki (Carbonic anhydrase 2) | Ki (Carbonic anhydrase 1) | Ki (Carbonic anhydrase 4) | Ki (Carbonic anhydrase 7) | Ki (Carbonic anhydrase 9) | Ratio Ki (Homo sapiens [1]) | Ratio Ki (Homo sapiens [2]) | Ratio Ki (Homo sapiens [3]) | Ratio Ki (Homo sapiens [4]) |
| --- | --- | --- | --- | --- | --- | --- | --- | --- | --- |
| CC(C)(C)OC(=O)NCc1cn(-c2ccc3c(c2)B(O)OC3)nn1 | 461 nM | 737 nM | 730 nM | 135 nM | 75.2 nM |  |  |  |  |
| OB1OCc2ccc(-n3cc(-c4ccccc4)nn3)cc21 | 362 nM | 740 nM | 1180 nM | 262 nM | 122 nM |  |  |  |  |
| [N-]=[N+]=Nc1ccc2c(c1)B(O)OC2 | 350 nM | 3040 nM | 3120 nM | 432 nM | 539 nM |  |  |  |  |
| CCOC(=O)c1cn(-c2ccc3c(c2)B(O)OC3)nn1 | 796 nM | 2510 nM | 2480 nM | 441 nM | 337 nM |  |  |  |  |
| OCc1cn(-c2ccc3c(c2)B(O)OC3)nn1 | 873 nM | 1090 nM | 928 nM | 141 nM | 145 nM |  |  |  |  |
| O=c1ccc2ccc(OCc3cn(-c4ccc5c(c4)B(O)OC5)nn3)cc2o1 | 375 nM | 2600 nM | 3180 nM | 70.2 nM | 111 nM |  |  |  |  |
| OCCc1cn(-c2ccc3c(c2)B(O)OC3)nn1 | 494 nM | 1460 nM | 497 nM | 81.7 nM | 70.4 nM |  |  |  |  |
| OB1OCc2ccc(-n3cc(C4CC4)nn3)cc21 | 1080 nM | 2320 nM | 3220 nM | 474 nM | 389 nM |  |  |  |  |
| O=C(O)c1cccc(-c2cn(-c3ccc4c(c3)B(O)OC4)nn2)c1 | 310 nM | 505 nM | 749 nM | 67.5 nM | 114 nM |  |  |  |  |

Molecules with a lower Ki (Carbonic anhydrase 2), results first:

| Ki (Carbonic anhydrase 2) | Ki (Carbonic anhydrase 1) | Ki (Carbonic anhydrase 4) | Ki (Carbonic anhydrase 7) | Ki (Carbonic anhydrase 9) | Ratio Ki (Homo sapiens [1]) | Ratio Ki (Homo sapiens [2]) | Ratio Ki (Homo sapiens [3]) | Ratio Ki (Homo sapiens [4]) | SMILES |
| --- | --- | --- | --- | --- | --- | --- | --- | --- | --- |
| 186 nM | 336 nM | 1050 nM | 35.6 nM | 28 nM | 6 | 6 | 6 | 6 | OB1OCc2ccc(-n3cc(COc4ccc(F)cc4)nn3)cc21 |
| 183 nM | 1100 nM | 1930 nM | 124 nM | 32 nM |  |  |  |  | COc1cccc(OCc2cn(-c3ccc4c(c3)B(O)OC4)nn2)c1 |
| 258 nM | 863 nM | 1660 nM | 88.1 nM | 52 nM |  |  |  |  | COc1ccc(OCc2cn(-c3ccc4c(c3)B(O)OC4)nn2)cc1 |
| 270 nM | 300 nM | 1610 nM | 49.2 nM | 33.2 nM | 6 | 6 |  |  | OB1OCc2ccc(-n3cc(CSc4ccccc4)nn3)cc21 |
| 205 nM | 343 nM | 1380 nM | 56.2 nM | 29.1 nM |  |  |  |  | OB1OCc2ccc(-n3cc(COc4ccccc4)nn3)cc21 |
